Reference: US7244758B2, “N-type calcium channel blockers” (Neuromed Pharmaceuticals Ltd., priority 2003, dated 2007)
Like-named read-outs stand apart in the source and are kept apart here.

Assays:
[1] = molecular target: T1, rat brain N-type calcium channel subunits (α1B+α2δ+β1b) (Rattus norvegicus, UniProt Q02294); assay: N-type calcium channel block, whole cell patch clamp in HEK 293 cells; assay type: cell-based; details: holding −80 mV to +10 mV, 5 mM Ba
T1 construct: expressed in transfected cells; host or cells: HEK 293
T1 sequence (Q02294 whole entry): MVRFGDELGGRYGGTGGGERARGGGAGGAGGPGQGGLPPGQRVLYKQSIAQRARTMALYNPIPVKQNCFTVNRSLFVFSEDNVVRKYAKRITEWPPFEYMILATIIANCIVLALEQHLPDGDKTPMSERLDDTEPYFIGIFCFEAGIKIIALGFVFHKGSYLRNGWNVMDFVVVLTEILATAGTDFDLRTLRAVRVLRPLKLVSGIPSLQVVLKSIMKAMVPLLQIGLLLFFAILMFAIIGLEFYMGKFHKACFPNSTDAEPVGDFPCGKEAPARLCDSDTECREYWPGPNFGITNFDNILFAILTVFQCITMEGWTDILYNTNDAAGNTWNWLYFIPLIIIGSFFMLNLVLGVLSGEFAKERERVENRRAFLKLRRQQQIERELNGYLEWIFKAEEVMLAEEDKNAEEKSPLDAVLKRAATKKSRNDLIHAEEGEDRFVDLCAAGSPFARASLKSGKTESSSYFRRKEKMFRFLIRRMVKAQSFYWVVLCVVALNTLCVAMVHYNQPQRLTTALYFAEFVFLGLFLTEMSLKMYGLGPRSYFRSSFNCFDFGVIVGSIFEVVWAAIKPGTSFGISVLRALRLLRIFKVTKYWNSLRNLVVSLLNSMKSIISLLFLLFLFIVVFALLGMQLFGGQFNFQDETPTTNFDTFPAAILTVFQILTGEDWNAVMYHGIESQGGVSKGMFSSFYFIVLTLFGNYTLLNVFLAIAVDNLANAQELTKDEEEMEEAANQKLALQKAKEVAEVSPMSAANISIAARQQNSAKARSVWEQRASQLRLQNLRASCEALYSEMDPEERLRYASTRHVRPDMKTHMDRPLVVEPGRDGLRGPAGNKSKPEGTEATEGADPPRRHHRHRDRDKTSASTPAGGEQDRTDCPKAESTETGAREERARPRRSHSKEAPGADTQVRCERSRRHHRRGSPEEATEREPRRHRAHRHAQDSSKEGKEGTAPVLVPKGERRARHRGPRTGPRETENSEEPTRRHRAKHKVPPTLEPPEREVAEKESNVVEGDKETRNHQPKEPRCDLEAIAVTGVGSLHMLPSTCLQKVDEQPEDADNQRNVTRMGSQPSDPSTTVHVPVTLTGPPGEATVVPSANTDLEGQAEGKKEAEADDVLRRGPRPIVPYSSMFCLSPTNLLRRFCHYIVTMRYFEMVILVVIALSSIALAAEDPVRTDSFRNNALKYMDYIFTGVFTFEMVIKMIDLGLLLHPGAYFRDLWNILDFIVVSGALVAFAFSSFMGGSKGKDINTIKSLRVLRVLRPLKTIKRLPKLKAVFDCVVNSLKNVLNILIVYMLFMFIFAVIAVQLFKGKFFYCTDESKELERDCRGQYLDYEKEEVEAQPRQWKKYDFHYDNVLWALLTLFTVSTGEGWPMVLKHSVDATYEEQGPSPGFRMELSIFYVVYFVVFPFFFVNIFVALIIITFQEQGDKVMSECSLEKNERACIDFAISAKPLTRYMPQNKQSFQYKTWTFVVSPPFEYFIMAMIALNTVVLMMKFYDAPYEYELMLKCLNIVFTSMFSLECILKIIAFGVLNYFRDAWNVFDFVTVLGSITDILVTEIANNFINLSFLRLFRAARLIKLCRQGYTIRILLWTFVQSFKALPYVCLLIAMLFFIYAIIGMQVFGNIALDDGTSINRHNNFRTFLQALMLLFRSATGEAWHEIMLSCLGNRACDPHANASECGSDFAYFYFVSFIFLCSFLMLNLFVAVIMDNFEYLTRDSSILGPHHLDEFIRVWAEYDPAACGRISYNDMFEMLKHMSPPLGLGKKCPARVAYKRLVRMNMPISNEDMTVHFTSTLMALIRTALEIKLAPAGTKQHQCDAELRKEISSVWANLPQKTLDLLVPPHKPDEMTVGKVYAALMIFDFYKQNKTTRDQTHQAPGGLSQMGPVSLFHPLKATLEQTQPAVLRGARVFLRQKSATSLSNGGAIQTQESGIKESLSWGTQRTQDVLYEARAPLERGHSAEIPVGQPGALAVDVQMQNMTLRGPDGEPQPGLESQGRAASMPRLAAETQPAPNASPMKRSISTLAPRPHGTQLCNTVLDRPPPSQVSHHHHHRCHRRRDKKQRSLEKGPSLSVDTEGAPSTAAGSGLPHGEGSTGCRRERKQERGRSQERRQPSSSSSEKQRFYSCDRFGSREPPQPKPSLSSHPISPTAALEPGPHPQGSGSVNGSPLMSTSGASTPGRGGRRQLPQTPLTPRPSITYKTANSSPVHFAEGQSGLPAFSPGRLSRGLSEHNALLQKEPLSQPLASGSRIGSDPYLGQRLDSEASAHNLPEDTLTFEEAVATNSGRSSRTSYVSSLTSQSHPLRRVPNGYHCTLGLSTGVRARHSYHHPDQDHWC
Method: Antagonist activity was measured using whole cell patch recordings on human embryonic kidney cells either stably or transiently expressing rat α1B+α2δ+β1b channels (N-type channels) with 5 mM barium as a charge carrier. P/Q-type channels (α1A+α2δ+β1b cDNA subunits) and L-type channels (α1C+α2δ+β1b cDNA subunits) were also transiently expressed in HEK 293 cells.
For transient expression, host cells, such as human embryonic kidney cells, HEK 293 (ATCC# CRL 1573) were grown in standard DMEM medium supplemented with 2 mM glutamine and 10% fetal bovine serum. HEK 293 cells were transfected by a standard calcium-phosphate-DNA coprecipitation method using the rat α1B+β1b+α2δ N-type calcium channel subunits in a vertebrate expression vector (for example, see Current Protocols in Molecular Biology).
After an incubation period of from 24 to 72 hrs the culture medium was removed and replaced with external recording solution (see below). Whole cell patch clamp experiments were performed using an Axopatch 200B amplifier (Axon Instruments, Burlingame, Calif.) linked to an IBM compatible personal computer equipped with pCLAMP software. Borosilicate glass patch pipettes (Sutter Instrument Co., Novato, Calif.) were polished (Microforge, Narishige, Japan) to a resistance of about 4 MΩ when filled with cesium methanesulfonate internal solution (composition in MM: 109 CsCH3 SO4, 4 MgCl2, 9 EGTA, 9 HEPES, pH 7.2). Cells were bathed in 5 mM Ba^++ (in mM: 5 BaCl2, 1 MgCl2, 10 HEPES, 40 tetraethylammonium chloride, 10 glucose, 87.5 CsCl pH 7.2). […] Drugs were perfused directly into the vicinity of the cells using a microperfusion system.
Normalized dose-response curves were fit (Sigmaplot 4.0, SPSS Inc., Chicago, Ill.) by the Hill equation to determine IC50 values. Steady-state inactivation curves were plotted as the normalized test pulse amplitude following 5 s inactivating prepulses at +10 mV increments. Inactivation curves were fit (Sigmaplot 4.0) with the Boltzman equation, Ipeak (normalized)=1/(1+exp((V−Vh)z/25.6)), where V and Vh are the conditioning and half inactivation potentials, respectively, and z is the slope factor.
N-type calcium channel blocking activity was assayed in human embryonic kidney cells, HEK 293, stably transfected with the rat brain N-type calcium channel subunits (α1B+α2δ+β1b cDNA subunits). Alternatively, N-type calcium channels (α1B+α2δ+β1b cDNA subunits), L-type channels (α1C+α2δ+β1b cDNA subunits) and P/Q-type channels (α1A+α2δ+β1b cDNA subunits) were transiently expressed in HEK 293 cells. Briefly, cells were cultured in Dulbecco's modified eagle medium (DMEM) supplemented with 10% fetal bovine serum, 200 U/ml penicillin and 0.2 mg/ml streptomycin at 37° C. with 5% CO2. At 85% confluency cells were split with 0.25% trypsin/1 mM EDTA and plated at 10% confluency on glass coverslips. At 12 hours the medium was replaced and the cells transiently transfected using a standard calcium phosphate protocol and the appropriate calcium channel cDNA's. Fresh DMEM was supplied and the cells transferred to 28° C./5% CO2. Cells were incubated for 1 to 2 days to whole cell recording.
Whole cell patch clamp experiments were performed using an Axopatch 200B amplifier (Axon Instruments, Burlingame, Calif.) linked to a personal computer equipped with pCLAMP software. The external and internal recording solutions contained, respectively, 5 mM BaCl2, […], 10 mM HEPES, 40 mM TEACl, 10 mM glucose, 87.5 mM CsCl (pH 7.2) and 108 mM CsMS, 4 mM MgCl2, 9 mM EGTA, 9 mM HEPES (pH 7.2). Currents were typically elicited from a holding potential of −80 mV to +10 mV using Clampex software (Axon Instruments).

[2] = molecular target: T2, human α1G T-type channels (Homo sapiens, UniProt O43497); assay: Block of α1G T-type channels, whole-cell patch clamp in HEK cells; assay type: cell-based
T2 construct: expressed in transfected cells
T2 sequence (O43497 whole entry): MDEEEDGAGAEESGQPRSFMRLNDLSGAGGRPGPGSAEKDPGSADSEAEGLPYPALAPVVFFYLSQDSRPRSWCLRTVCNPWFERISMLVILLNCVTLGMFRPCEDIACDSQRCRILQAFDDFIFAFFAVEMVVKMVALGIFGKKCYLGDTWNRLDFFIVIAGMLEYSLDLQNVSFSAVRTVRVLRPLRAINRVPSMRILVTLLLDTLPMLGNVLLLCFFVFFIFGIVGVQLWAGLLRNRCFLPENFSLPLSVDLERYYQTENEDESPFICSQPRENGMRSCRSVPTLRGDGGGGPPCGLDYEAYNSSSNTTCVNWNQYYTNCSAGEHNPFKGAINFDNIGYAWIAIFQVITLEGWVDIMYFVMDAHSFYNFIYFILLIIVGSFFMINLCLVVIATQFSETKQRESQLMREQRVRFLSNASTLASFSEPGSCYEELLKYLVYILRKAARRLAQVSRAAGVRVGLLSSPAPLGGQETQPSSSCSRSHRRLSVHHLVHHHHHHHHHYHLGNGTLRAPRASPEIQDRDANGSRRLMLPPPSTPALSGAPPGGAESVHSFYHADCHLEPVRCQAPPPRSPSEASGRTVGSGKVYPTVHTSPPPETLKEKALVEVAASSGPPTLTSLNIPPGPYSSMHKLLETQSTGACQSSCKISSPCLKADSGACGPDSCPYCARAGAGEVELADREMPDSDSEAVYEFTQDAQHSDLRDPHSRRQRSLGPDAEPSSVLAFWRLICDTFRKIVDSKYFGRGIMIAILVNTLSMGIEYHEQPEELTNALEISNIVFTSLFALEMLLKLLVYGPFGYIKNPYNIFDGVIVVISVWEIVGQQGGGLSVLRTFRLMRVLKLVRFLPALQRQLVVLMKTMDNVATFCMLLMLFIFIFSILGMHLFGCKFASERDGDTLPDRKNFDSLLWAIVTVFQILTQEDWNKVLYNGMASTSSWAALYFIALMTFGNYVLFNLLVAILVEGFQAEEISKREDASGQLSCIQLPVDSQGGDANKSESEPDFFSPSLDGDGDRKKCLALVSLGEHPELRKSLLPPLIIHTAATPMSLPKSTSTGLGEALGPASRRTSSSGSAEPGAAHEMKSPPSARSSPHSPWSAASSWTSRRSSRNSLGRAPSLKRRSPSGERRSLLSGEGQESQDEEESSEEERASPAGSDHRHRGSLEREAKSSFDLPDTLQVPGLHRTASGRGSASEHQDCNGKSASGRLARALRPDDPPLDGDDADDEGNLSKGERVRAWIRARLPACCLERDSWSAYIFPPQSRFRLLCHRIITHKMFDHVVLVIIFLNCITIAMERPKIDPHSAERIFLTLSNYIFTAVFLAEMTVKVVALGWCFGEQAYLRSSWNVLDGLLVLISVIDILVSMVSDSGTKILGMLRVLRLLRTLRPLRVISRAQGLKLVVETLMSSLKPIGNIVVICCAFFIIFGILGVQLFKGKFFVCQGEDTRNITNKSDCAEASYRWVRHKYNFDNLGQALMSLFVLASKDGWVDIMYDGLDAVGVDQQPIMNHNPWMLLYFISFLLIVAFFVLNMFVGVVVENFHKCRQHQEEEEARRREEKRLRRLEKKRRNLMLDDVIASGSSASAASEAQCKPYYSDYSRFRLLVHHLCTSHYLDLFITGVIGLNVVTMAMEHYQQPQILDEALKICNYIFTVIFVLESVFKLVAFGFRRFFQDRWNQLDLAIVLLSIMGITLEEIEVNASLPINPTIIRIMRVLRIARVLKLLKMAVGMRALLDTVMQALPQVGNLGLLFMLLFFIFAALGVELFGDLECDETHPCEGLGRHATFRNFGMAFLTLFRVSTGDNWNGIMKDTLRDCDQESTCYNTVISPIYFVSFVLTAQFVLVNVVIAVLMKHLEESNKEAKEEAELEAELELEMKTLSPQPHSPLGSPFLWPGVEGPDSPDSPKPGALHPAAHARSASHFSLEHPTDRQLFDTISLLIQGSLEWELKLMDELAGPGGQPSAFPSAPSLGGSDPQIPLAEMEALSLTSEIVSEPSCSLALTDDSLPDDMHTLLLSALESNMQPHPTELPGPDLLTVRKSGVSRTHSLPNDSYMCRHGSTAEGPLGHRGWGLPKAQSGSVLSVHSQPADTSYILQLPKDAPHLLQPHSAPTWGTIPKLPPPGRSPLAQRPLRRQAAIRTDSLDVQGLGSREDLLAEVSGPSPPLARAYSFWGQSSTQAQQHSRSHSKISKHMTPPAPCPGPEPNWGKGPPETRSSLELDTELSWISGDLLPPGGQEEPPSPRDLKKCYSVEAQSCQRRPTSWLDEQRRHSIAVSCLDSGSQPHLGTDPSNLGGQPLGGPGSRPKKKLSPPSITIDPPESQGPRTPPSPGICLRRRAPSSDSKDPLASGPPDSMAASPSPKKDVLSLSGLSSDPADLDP
Method: Standard patch-clamp techniques were employed to identify blockers of T-type currents. Briefly, previously described HEK cell lines stably expressing human α1G T-type channels were used for all the recordings (passage #: 4-20, 37° C., 5% CO2). To obtain T-type currents, plastic dishes containing semi-confluent cells were positioned on the stage of a ZEISS AXIOVERT S100 microscope after replacing the culture medium with external solution (see below). Whole-cell patches were obtained using pipettes (borosilicate glass with filament, O.D.: 1.5 mm, I.D.: 0.86 mm, 10 cm length), fabricated on a SUTTER P-97 puller with resistance values of ˜5 MΩ (see below for internal solution).
In the non-inactivating protocol, the holding potential is set at −110 mV and with a pre-pulse at −100 mV for 1 second prior to the test pulse at −40 mV for 50 ms. […]
Test compounds were dissolved in external solution, 0.1-0.01% DMSO. After ˜10 min rest, they were applied by gravity close to the cell using a WPI microfil tubing. The “non-inactivated” pre-pulse was used to examine the resting block of a compound. The “inactivated” protocol was employed to study voltage-dependent block. However, the initial data shown below were mainly obtained using the non-inactivated protocol only. IC50 values are shown for various compounds of the invention in Table 6.

[3] = low frequency stimulation 0.067 Hz (tonic block), read-out: IC50 at 0.067 Hz
[4] = pulse frequency 0.2 Hz (frequency dependent block), read-out: IC50 at 0.2 Hz
[5] = non-inactivating protocol, pre-pulse −100 mV (resting block), read-out: IC50 at −100 mV
[6] = inactivation protocol (voltage-dependent block), read-out: IC50 at −80 mV

Row | IC50 [1, 3] | IC50 [1, 4] | IC50 [2, 5] | IC50 [2, 6] | IC50 at −100 mV ([2]; non-inactivating protocol, pre-pulse −100 mV (resting block)) | SMILES
1 | 61 nM | – | – | – | – | O=C(CC(c1ccccc1)c1ccccc1)NCC1CCN(C(c2ccccc2)c2ccccc2)C1 (stereo not shown) [Compound P1]
2 | 137 nM | 92 nM | – | – | – | CN(CCC(c1ccccc1)c1ccccc1)CC1CCN(C(c2ccccc2)c2ccccc2)C1 (stereo not shown) [Compound P56]
3 | – | – | 70 nM | – | – | COc1c(C(C)(C)C)cc(C(=O)NCC2CCN(CCCCCC(c3ccc(F)cc3)c3ccc(F)cc3)C2)cc1C(C)(C)C (stereo not shown) [Compound P19]
4 | 35 nM | – | – | – | – | CC(C)(C)c1cc(CNCC2CCN(CCCCCC(c3ccc(F)cc3)c3ccc(F)cc3)C2)cc(C(C)(C)C)c1O (stereo not shown) [Compound P8]
5 | 212 nM | – | – | – | – | COc1cc(CN2CCC(CNCCCCCC(c3ccc(F)cc3)c3ccc(F)cc3)C2)cc(OC)c1OC (stereo not shown) [Compound P6]
6 | 136 nM | 89 nM | 18 nM | 8 nM | – | O=C(NCC1CCN(C(=O)CCCCC(c2ccc(F)cc2)c2ccc(F)cc2)C1)c1cc(C(F)(F)F)cc(C(F)(F)F)c1 (stereo not shown) [Compound P49]
7 | 120 nM | 86 nM | 79 nM | 58 nM | – | COc1cc(CN(C)CC2CCN(C(=O)CCCCC(c3ccc(F)cc3)c3ccc(F)cc3)C2)cc(OC)c1OC (stereo not shown) [Compound P58]
8 | 223 nM | 157 nM | – | – | – | CN(CC1CCN(C(c2ccccc2)c2ccccc2)C1)C(=O)CC(c1ccccc1)c1ccccc1 (stereo not shown) [Compound P53]
9 | 19 nM | 3 nM | 328 nM | 105 nM | – | Cc1cc(C)cc(NCC(=O)NCC2CCN(C(=O)CCCCC(c3ccc(F)cc3)c3ccc(F)cc3)C2)c1 (stereo not shown) [Compound P40]
10 | 76 nM | 53 nM | – | – | – | O=C(CC(c1ccc(F)cc1)c1ccc(F)cc1)NCC1CCN(C(c2ccccc2)c2ccc(F)cc2)C1 (stereo not shown) [Compound P50]
11 | 417 nM | – | 86 nM | – | – | COc1cc(C(=O)NCC2CCN(C(=O)CCCCC(c3ccc(F)cc3)c3ccc(F)cc3)C2)cc(OC)c1OC (stereo not shown) [Compound P3]
12 | 80 nM | 24 nM | 94 nM | 21 nM | – | O=C(CC(c1ccccc1)c1ccccc1)NCC1CCN(C(c2ccccc2)c2cccc(Cl)c2)C1 (stereo not shown) [Compound P38]
13 | 450 nM | 280 nM | – | – | – | COc1cc(C(=O)NCC2CCN(CCCCCC(c3ccc(F)cc3)c3ccc(F)cc3)C2)cc(OC)c1OC (stereo not shown) [Compound P20]
14 | 8000 nM | 2000 nM | 40000 nM | 6000 nM | – | c1ccc(C(c2ccccc2)N2CCC(CN(CCN(c3ccccc3)c3ccccc3)CCN(c3ccccc3)c3ccccc3)C2)cc1 (stereo not shown) [Compound P59]
15 | 28 nM | – | – | – | – | CC(C)(C)c1cc(CNCC2CCN(CCCCCC(c3ccc(F)cc3)c3ccc(F)cc3)C2)cc(C(C)(C)C)c1 (stereo not shown) [Compound P18]
16 | 72 nM | 56 nM | – | – | – | O=C(CC(c1ccc(F)cc1)c1ccc(F)cc1)NCC1CCN(C(c2ccccc2)c2ccccc2)C1 (stereo not shown) [Compound P51]
17 | 225 nM | 81 nM | 115 nM | 28 nM | – | CN(Cc1cc(C(F)(F)F)cc(C(F)(F)F)c1)CC1CCN(C(=O)CCCCC(c2ccc(F)cc2)c2ccc(F)cc2)C1 (stereo not shown) [Compound P57]

Row | IC50 [1, 3] | IC50 [1, 4] | IC50 [2, 5] | IC50 [2, 6] | IC50 at −100 mV ([2]; non-inactivating protocol, pre-pulse −100 mV (resting block)) | SMILES
18 | 39 nM | – | – | – | – | COc1c(C(C)(C)C)cc(CNCC2CCN(CCCCCC(c3ccc(F)cc3)c3ccc(F)cc3)C2)cc1C(C)(C)C (stereo not shown) [Compound P14]
19 | 59 nM | – | – | – | No effect | COc1cc(C(=O)N2CCC(CNC(=O)CCCCC(c3ccc(F)cc3)c3ccc(F)cc3)C2)cc(OC)c1OC (stereo not shown) [Compound P5]
20 | 1070 nM | 840 nM | 326 nM | 52 nM | – | O=C(CC(c1ccccc1)c1ccccc1)N1CCC(CNC(c2ccccc2)c2ccccc2)C1 (stereo not shown) [Compound P2]
21 | 57 nM | 45 nM | 618 nM | 227 nM | – | CN(C(=O)CN(CC(=O)N(C)c1ccccc1)CC1CCN(C(c2ccccc2)c2ccccc2)C1)c1ccccc1 (stereo not shown) [Compound P60]
22 | 23 nM | 8 nM | 111 nM | 28 nM | – | O=C(CC(c1ccccc1)c1ccccc1)NCC1CCN(C(c2ccccc2)c2ccccc2Cl)C1 (stereo not shown) [Compound P37]
23 | 563 nM | 220 nM | 460 nM | 196 nM | – | O=C(COc1ccc(F)cc1F)NCC1CCN(C(=O)CCCCC(c2ccc(F)cc2)c2ccc(F)cc2)C1 (stereo not shown) [Compound P31]
24 | 512 nM | 247 nM | 410 nM | 67 nM | – | O=C(CN(c1ccccc1)c1ccccc1)NCC1CCN(C(c2ccccc2)c2ccccc2)C1 (stereo not shown) [Compound P45]
25 | 100 nM | 20 nM | 30 nM | 12 nM | – | O=C(COc1ccc(Cl)cc1)NCC1CCN(C(=O)CCCCC(c2ccc(F)cc2)c2ccc(F)cc2)C1 (stereo not shown) [Compound P36]
26 | – | – | 94 nM | 59 nM | – | COc1c(C(C)(C)C)cc(C(=O)NCC2CCN(C(=O)CCCCC(c3ccc(F)cc3)c3ccc(F)cc3)C2)cc1C(C)(C)C (stereo not shown) [Compound P42]
27 | 32 nM | – | – | – | – | COc1c(C(C)(C)C)cc(CN2CCC(CNCCCCCC(c3ccc(F)cc3)c3ccc(F)cc3)C2)cc1C(C)(C)C (stereo not shown) [Compound P12]
28 | 400 nM | – | – | – | – | COc1cc(CNCC2CCN(CCCCCC(c3ccc(F)cc3)c3ccc(F)cc3)C2)cc(OC)c1OC (stereo not shown) [Compound P4]
29 | 410 nM | 200 nM | – | – | – | CN(C)CCOc1c(C(C)(C)C)cc(C(=O)N2CCC(CNC(=O)CCCCC(c3ccc(F)cc3)c3ccc(F)cc3)C2)cc1C(C)(C)C (stereo not shown) [Compound P23]
30 | 380 nM | 330 nM | – | – | – | COc1cc(C(=O)N2CCC(CN(C)CCCCCC(c3ccc(F)cc3)c3ccc(F)cc3)C2)cc(OC)c1OC (stereo not shown) [Compound P63]
31 | 135 nM | 110 nM | – | – | – | CC(C)(C)c1ccc(C(c2ccccc2)N2CCC(CNC(=O)CC(c3ccc(F)cc3)c3ccc(F)cc3)C2)cc1 (stereo not shown) [Compound P52]
32 | 210 nM | 150 nM | – | – | – | O=C(NCC1CCN(CCCCCC(c2ccc(F)cc2)c2ccc(F)cc2)C1)c1cc(C(F)(F)F)cc(C(F)(F)F)c1 (stereo not shown) [Compound P21]
33 | 49 nM | – | – | – | – | CC(C)(C)c1cc(C(=O)NCC2CCN(C(=O)CCCCC(c3ccc(F)cc3)c3ccc(F)cc3)C2)cc(C(C)(C)C)c1O (stereo not shown) [Compound P7]
34 | 15 nM | – | – | – | – | CC(C)(C)c1cc(C(=O)N2CCC(CNC(=O)CCCCC(c3ccc(F)cc3)c3ccc(F)cc3)C2)cc(C(C)(C)C)c1O (stereo not shown) [Compound P9]
